Consider nine compounds from patent publication US11492361B2, “Compounds useful in HIV therapy” (GlaxoSmithKline Intellectual Property Development Limited, priority 2018, dated 2022).

One assay deals with NFKB2. Nature of the assay: NFkB2 gene induction. It counts as cell-based, human. The following applies: Homo sapiens, CD4+ T, 24 h, read-out: NFkB2 gene induction EC50 (nM). On the procedure:
5×10^5 normal donor CD4 T cells were treated for 24h with serial dilutions of compounds starting at 1.0 μM at 6 fold, 7 places. Total RNA was isolated using the RNEasy Mini kit (Qiagen) per the manufacturer's instructions. The following TaqMan primer probe sets were sourced from Applied Biosystems: Hs00174517_m1 (NFKB2) and Hs02800695 (HPRT1). TaqMan-based real-time PCR (Fast Virus 1-Step Master Mix, Applied Biosystems) was used to amplify host genes of interest. Gene expression was normalized to HPRT1 and comparative threshold cycle (CT) method (ΔΔCT) was used for relative fold change of gene expression as compared to untreated cells. The data was analyzed by QuantStudio3 Real-Time PCR System.

The test system of assay [1] is Jurkat HIV-luciferase clones. Nature of the assay: Jurkat latency reversal assay. The assay is classed as cell-based. The following applies: Homo sapiens, Jurkat. The gist of the method:
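Three pooled Jurkat HIV-luciferase clones (C16, I15, N6; 5,000 cells/well, maintained with 500 nM EFV) exposed to 3-fold, 14-point titrations (10 μM to 2.1 pM, 0.5% DMSO) in duplicate for 48 h at 37 °C. Luciferase luminescence read; EC50 and maximal % activation versus vehicle from four-parameter logistic fit.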

In a further assay the test system is p100/p52. Kind of assay: p100/p52 Western blot (WB) assay. It counts as cell-based, human. As to conditions: Homo sapiens; for EC50: PBMC, 24 h, read-out: p100/p52 Western Blot (WB) EC50 (nM). Here is the method:
Cell cultures were set up to evaluate several SMACm compounds. Frozen PBMC cells from healthy donors were thawed and plated in 2 ml deepwell plates at 2×10^6 cells/ml. Serial dilutions of each compound was carried out as a 7 fold 1:6 dilution with the starting final dose of 1000 nM. Cells were then combined with compound and place at 37° for 24 hrs. The following day cells were pelleted and placed at −80 until lysis.
In preparation for cell lysis, the frozen cell pellets and an aliquot of NP40 Cell Lysis Buffer (Invitrogen, Part #FNN0021), as well as an aliquot of 10× Protease Inhibitor Cocktail (Sigma, Part #P-2714) are thawed on ice. Once thawed, the complete lysis buffer is prepared by adding 10% final volume PI cocktail to the NP40 buffer and then adding in sufficient volume of 0.1 M PMSF (Sigma, Part #93482) and 1 M DTT (Sigma, Part #43816) to create a final concentration of 1 mM each in the complete lysis buffer. Cell lysis is then carried out by resuspending each cell pellet in 30 μL per 10^6 cells then incubating on ice for 30 minutes with vigorous vortexing every 10 minutes. The lysed cells are then centrifuged at 13K RPM for 10 minutes at 4° C. in a refrigerated microcentrifuge. The supernatants (lysates) are then transferred into new microcentrifuge tubes and either stored at −80° or utilized immediately for protein concentration and Western blot analysis.
Protein concentration for each lysate is determined using a detergent compatible Bradford assay (Pierce, Part #23246) following the manufacturer's microplate instructions.
Capillary Western analysis were performed using the ProteinSimple Jess System. A total of 1 ug of cell lysate was prepared according to the provided protocol supplied by ProteinSimple. The primary antibody for p100/p52 (Cell, Signaling #3017) is diluted 1:10 for use in the Jess system. The 12-230 kDa Jess Seperation Module capillary cartridges Separation Module (SM-W004) is used in conjunction with the Anti-Rabbit Secondary NIR conjugate (043-819). The Separation module includes prefilled plates that the samples, primary and secondary antibodies, as well as protein normalization reagent and diluents are loaded onto to perform separation and detection. Once the assay has run, the data is then analyzed utilizing the Compass software provided by ProteinSimple.
Alternatively to capillary electrophoresis, traditional immunoblot assays were carried out, 10 μg of cell lysate was loaded per well into 4-20% Tris-Glycine SDS-PAGE gels. Protein from the SDS-PAGE gels were transferred to Turbo Midi PVDF Transfer Packs (BioRad) using the “Mixed MW” protocol for one Midi Format Gel (constant 2.5 A up to 25V, for 7 minutes) of the Trans-Blot Turbo Transfer System (Bio-Rad) with premade Trans-Blot per the manufacturer's instructions. After transfer, PVDF membranes were blocked in 5% bovine serum albumin (BSA) in 1×TBS (BioRad) with 0.1% Tween-20 for 1 hour at room temperature with gentle rocking. Primary antibodies were added and incubated overnight at 4° C. (anti-p100/p52, Cell Signaling Technology #3017, 1:1000; anti-Actin-HRP conjugate, Abcam #49900, 1:30,000). Following primary staining, the membrane washed three times with 1× Tris Buffered Saline (TBS)+0.1% TWEEN® 20 for 10 minutes each wash. After washing, the membrane was incubated in 5% BSA in 1×TBS+0.1% TWEEN® 20 with the appropriate secondary antibody for 2 hours at room temperature. Following secondary stain the membrane was washed twice for 10 minutes with 1×TBS+0.1% TWEEN® 20 followed by a 10-minute wash with 1×TBS. The membrane was then patted dry with filter paper and an image was captured of the undeveloped membrane on the ChemiDoc MP Imaging System using Image Lab software (BioRad). Sufficient ECL reagent (GE Healthcare) was used to cover the membrane and a series of images were taken starting with 0.001 second and doubling to tripling the exposure time until the luminescence from the developed membrane saturated the image. […]
(A western blot detects proteins with antibodies after separation by electrophoresis.)

[2] abbreviates: Table 4 summary, read-out: Jurkat EC50.

pEC50: −log10 of the molar value. Where a name gives a salt, the structure may show the parent alone. Read-outs that look alike come from different tables or passages of the source. A value given as a limit tells only on which side of the number the result lay.

Turning to `CN[C@@H](C)C(=O)N[C@H]1CCS[C@H]2CC(C)(C)[C@@H](C(=O)N[C@H](COCCCCCCOC[C@@H](NC(=O)[C@H]3N4C(=O)[C@@H](NC(=O)[C@H](C)NC)CCS[C@H]4CC3(C)C)c3ccccc3)c3ccccc3)N2C1=O` [compound 40, (4S,4′S,7S,7′S,9aS,9a′S)-N,N′-((1S,1′S)-(hexane-1,6-diylbis(oxy))bis(1-phenylethane-2,1-diyl))bis(8,8-dimethyl-4-((S)-2-(methylamino)propanamido)-5-oxooctahydropyrrolo[2,1-b][1,3]thiazepine-7-carboxamide) dihydrochloride], the EC50 in the assay on NFKB2 was 11 nM; with p100/p52, 1 nM. For the same compound, the pEC50 in assay [1] (48 h) and in assay [1] (setting [2]) was 8.21 each time.

Consider `CN[C@@H](C)C(=O)N[C@H]1CCS[C@H]2CC(C)(C)[C@@H](C(=O)N[C@H](COCc3ccc(COC[C@@H](NC(=O)[C@H]4N5C(=O)[C@@H](NC(=O)[C@H](C)NC)CCS[C@H]5CC4(C)C)c4ccccc4)cc3)c3ccccc3)N2C1=O` [compound 42, (4S,4′S,7S,7′S,9aS,9a′S)-N,N′-((1S,1′S)-((1,4-phenylenebis(methylene))bis(oxy))bis(1-phenylethane-2,1-diyl))bis(8,8-dimethyl-4-((S)-2-(methylamino)propanamido)-5-oxooctahydropyrrolo[2,1-b][1,3]thiazepine-7-carboxamide) dihydrochloride], for which the EC50 in the assay on NFKB2 stood at 3.6 nM; with p100/p52, 3.1 nM. The pEC50 in assay [1] (48 h) and in assay [1] (setting [2]) was 8.17 throughout.

Take `CN[C@@H](C)C(=O)N[C@H]1CCO[C@H]2CC(C)(C)C(C(=O)Nc3ccccc3SSc3ccccc3NC(=O)C3N4C(=O)[C@@H](NC(=O)[C@H](C)NC)CCO[C@H]4CC3(C)C)N2C1=O` (stereo partly shown) [Formula F, reference compound]: the pEC50 in assay [1] (48 h, Table 4 summary, read-out: Jurkat EC50) was approximately 6.00; in the assay with p100/p52 (PBMC cells from healthy donors, 24 hrs, read-out: p100/p52 Western Blot (WB) EC50), less than 6.00.

With `CN[C@@H](C)C(=O)N[C@H]1CCS[C@H]2CC(C)(C)[C@@H](C(=O)N[C@H]3c4ccccc4C[C@H]3OCCCCCCO[C@@H]3Cc4ccccc4[C@@H]3NC(=O)[C@H]3N4C(=O)[C@@H](NC(=O)[C@H](C)NC)CCS[C@H]4CC3(C)C)N2C1=O` [compound 20, (4S,4′S,7S,7′S,9aS,9a′S)-N,N′-((1S,1′S,2R,2′R)-(hexane-1,6-diylbis(oxy))bis(2,3-dihydro-1H-indene-2,1-diyl))bis(8,8-dimethyl-4-((S)-2-(methylamino)propanamido)-5-oxooctahydropyrrolo[2,1-b][1,3]thiazepine-7-carboxamide)], the EC50 worked out at 75 nM with NFKB2 and 3.1 nM in the assay on p100/p52. The pEC50 in assay [1] (48 h) and in assay [1] (setting [2]) was 7.92 each time.

`CN[C@@H](C)C(=S)N[C@H]1CCS[C@H]2CC(C)(C)[C@@H](C(=O)N[C@H](COCCCCOC[C@@H](NC(=O)[C@H]3N4C(=O)[C@@H](NC(=S)[C@H](C)NC)CCS[C@H]4CC3(C)C)c3ccccc3)c3ccccc3)N2C1=O` [compound 37, (4S,4′S,7S,7′S,9aS,9a′S)-N,N′-((1S,1′S)-(butane-1,4-diylbis(oxy))bis(1-phenylethane-2,1-diyl))bis(8,8-dimethyl-4-((S)-2-(methylamino)propanethioamido)-5-oxooctahydropyrrolo[2,1-b][1,3]thiazepine-7-carboxamide) dihydrochloride]: in assay [1] (48 h), the pEC50 is 7.96.

Take `CN[C@@H](C)C(=S)N[C@H]1CCS[C@H]2CC(C)(C)[C@@H](C(=O)N[C@H](COCCOCCOC[C@@H](NC(=O)[C@H]3N4C(=O)[C@@H](NC(=S)[C@H](C)NC)CCS[C@H]4CC3(C)C)c3ccccc3)c3ccccc3)N2C1=O` [compound 39, (4S,4′S,7S,7′S,9aS,9a′S)-N,N′-((1S,1′S)-((oxybis(ethane-2,1-diyl))bis(oxy))bis(1-phenylethane-2,1-diyl))bis(8,8-dimethyl-4-((S)-2-(methylamino)propanethioamido)-5-oxooctahydropyrrolo[2,1-b][1,3]thiazepine-7-carboxamide) dihydrochloride]: the pEC50 in assay [1] (48 h) was 7.29.

With `CN[C@@H](C)C(=O)N[C@H]1CCS[C@H]2CC(C)(C)[C@@H](C(=O)N[C@H](COCCCCCCCCOC[C@@H](NC(=O)[C@H]3N4C(=O)[C@@H](NC(=O)[C@H](C)NC)CCS[C@H]4CC3(C)C)c3ccccc3)c3ccccc3)N2C1=O` [compound 58, (4S,4′S,7S,7′S,9aS,9a′S)-N,N′-((1S,1′S)-(octane-1,8-diylbis(oxy))bis(1-phenylethane-2,1-diyl))bis(8,8-dimethyl-4-((S)-2-(methylamino)propanamido)-5-oxooctahydropyrrolo[2,1-b][1,3]thiazepine-7-carboxamide) dihydrochloride], the pEC50 in assay [1] (48 h) was 8.35.

For the compound `CN[C@@H](C)C(=O)N[C@H]1CCS[C@H]2CC(C)(C)[C@@H](C(=O)N[C@H]3c4ccccc4C[C@H]3OCCCOCCCO[C@@H]3Cc4ccccc4[C@@H]3NC(=O)[C@H]3N4C(=O)[C@@H](NC(=O)[C@H](C)NC)CCS[C@H]4CC3(C)C)N2C1=O` [compound 51, (4S,7S,9aS)-N-[(1S,2R)-2-[3-(3-{[(1S,2R)-1-[(4S,7S,9aS)-8,8-dimethyl-4-[(2S)-2-(methylamino)propanamido]-5-oxo-octahydropyrrolo[2,1-b][1,3]thiazepine-7-amido]-2,3-dihydro-1H-inden-2-yl]oxy}propoxy)propoxy]-2,3-dihydro-1H-inden-1-yl]-8,8-dimethyl-4-[(2S)-2-(methylamino)propanamido]-5-oxo-octahydropyrrolo[2,1-b][1,3]thiazepine-7-carboxamide], in assay [1] (48 h), the pEC50 was 7.62.

As to `CN[C@@H](C)C(=S)N[C@H]1CCS[C@H]2CC(C)(C)[C@@H](C(=O)N[C@H](C(=O)NCC#CC#CCNC(=O)[C@@H](NC(=O)[C@H]3N4C(=O)[C@@H](NC(=S)[C@H](C)NC)CCS[C@H]4CC3(C)C)c3ccccc3)c3ccccc3)N2C1=O` [compound 32, (4S,4′S,7S,7′S,9aS,9a′S)-N,N′-((1S,1′S)-(hexa-2,4-diyne-1,6-diylbis(azanediyl))bis(2-oxo-1-phenylethane-2,1-diyl))bis(8,8-dimethyl-4-((S)-2-(methylamino)propanethioamido)-5-oxooctahydropyrrolo[2,1-b][1,3]thiazepine-7-carboxamide)], in assay [1] (48 h), the pEC50 was 6.78.
